Assays:
3 cancer cell lines = assay: cell proliferation assay against cancer cell lines; format: cell-based; settings: result in words
HIV-1 BaL = assay: anti-HIV bioassay: HIV-1 p24 production in infected PHA-activated PBMCs (ELISA, day 7); format: cell-based; settings: PBMCs infected with HIV-1 BaL; result in words
Description: Stocks of crude drug made from G. officinale L. were prepared in Dimethyl sulfoxide (DMSO) in a stock solution of 10 mg/ml. Dilutions from the stock were made and the final concentration of DMSO in the cultures was always <0.1% to avoid cell toxicity. Peripheral blood mononuclear cells (PBMCs) were separated from buffy coats of HIV-1 seronegative donors (New York Blood Center, NY) by density centrifugation over Ficoll-Hypaque (Sigma). Briefly, the buffy coat suspension was diluted 1:2 with phosphate-buffered saline solution (PBS). Then, 35 ml were layered onto 15 ml of Ficoll® Paque PLUS (GE Healthcare), a ready to use sterile medium for isolation of lymphocytes and were centrifuged by standard ficoll-paque gradient centrifugation according to manufacturer's protocol (GE Healthcare) for 25 min at 400×g. The white interphase containing the PBMCs was collected and washed three times with PBS. […] On day 7, HIV-1 p24 protein production in the culture supernatant was measured using a commercial ELISA kit (Coulter, Hialeah, Fla.) and cell viability using a colorimetric MTT kit (Roche). […] The quantity of formazan produced (absorbance at 490 nm) is directly proportional to the number of living cells. […] MTT conversion to formazan by mitochondrial dehydrogenase was assayed by optical density at 490 nm measured in an ELISA plate reader. […]

Pseudomonas pseudomaliae = settings: result in words; cited from earlier work
brine shrimp = settings: result in words; cited from earlier work

For `CC1(C)CC[C@]2(C(=O)O)CC[C@]3(C)C(=CC[C@@H]4[C@@]5(C)CC[C@H](O[C@@H]6OC[C@@H](O)[C@H](OC7O[C@H](CO)[C@H](O)[C@H](O)[C@H]7O)[C@H]6O)C(C)(C)[C@@H]5CC[C@]43C)[C@@H]2C1` (stereo partly shown) [HL-038], the “activity against 3 cancer cell lines” value (3 cancer cell lines) was “moderate activity” and the Anti-HIV-1 activity (HIV-1 BaL) was “moderate activity”.

For guaianin N, the “antibacterial activity against Pseudomonas pseudomaliae” value (Pseudomonas pseudomaliae) is given as “antibacterial activity” and the brine shrimp toxicity (brine shrimp) is given as “toxicity”.

— patent US9814747B2, “Methods for inhibiting HIV-1 activity by inhibitory mechanisms of extracts of Guaiacum officinale L. (Zygophyllaceae)” (priority 2014, dated 2017)
